{
  "source": "patent US6586441B2",
  "about": "“Adenosine receptor ligands and their use in the treatment of disease” (Hoffman-La Roche Inc., priority 2000, dated 2003)",
  "key": {"[1]": {"molecular_target": "T1, human adenosine A1 receptor (Homo sapiens, UniProt P30542)", "T1 construct": "expressed in transfected cells; host or cells: CHO cells, semliki forest virus expression system; membrane preparation", "T1 sequence (P30542 1-326)": "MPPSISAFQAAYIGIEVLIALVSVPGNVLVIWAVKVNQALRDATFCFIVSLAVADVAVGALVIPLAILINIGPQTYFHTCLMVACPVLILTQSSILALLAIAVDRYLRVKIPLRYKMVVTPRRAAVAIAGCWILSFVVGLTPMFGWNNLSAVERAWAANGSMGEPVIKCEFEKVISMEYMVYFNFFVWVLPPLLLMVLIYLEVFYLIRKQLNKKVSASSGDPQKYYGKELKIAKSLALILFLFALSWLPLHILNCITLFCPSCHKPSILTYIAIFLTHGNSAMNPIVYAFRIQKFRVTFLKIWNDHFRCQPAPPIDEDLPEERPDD", "assay": "Human adenosine A1 receptor [3H]-DPCPX binding assay", "settings": "membranes of CHO cells, read-out: hA1 (pKi) (converted)", "protocol": "The gene encoding human adenosine A1 receptor was recombinantly introduced and expressed in chinese hamster ovary (CHO) cells using the semliki forest virus expression system. Cells were harvested, washed twice by centrifugation, homogenised and again washed by centrifugation. The final washed membrane pellet was suspended in a Tris (50 mM) buffer containing 120 mM NaCl, 5 mM KCl, 2 mM CaCl2 and 10 mM MgCl2 (pH 7.4) (buffer A). The [^3H]-DPCPX (([propyl-3H]8-cyclopentyl-1,3-dipropyxanthine); 0.6 nM) binding assay was carried out in 96-well plates in the presence of 2.5 μg of membrane protein, 0.5 mg of Ysi-poly-1-lysine SPA beads and 0. I U adenosine deaminase in a final volume of 200 μl of buffer A. Non-specific binding was defined using xanthine amine congener (XAC; 2 μM). Compounds were tested at 10 concentrations from 10 μM-0.3 nM. All assays were conducted in duplicate and repeated at least two times. Assay plates were incubated for 1 hour at room temperature before centrifugation and then bound ligand determined using a Packard Topcount scintillation counter. IC50 values were calculated using a non-linear curve fitting program and Ki values calculated using the Cheng-Prussoff equation."}, "[2]": {"molecular_target": "T2, human adenosine A2A receptor (Homo sapiens, UniProt P29274)", "T2 construct": "expressed in transfected cells; host or cells: CHO cells, semliki forest virus expression system; membrane preparation", "T2 sequence (P29274 whole entry)": "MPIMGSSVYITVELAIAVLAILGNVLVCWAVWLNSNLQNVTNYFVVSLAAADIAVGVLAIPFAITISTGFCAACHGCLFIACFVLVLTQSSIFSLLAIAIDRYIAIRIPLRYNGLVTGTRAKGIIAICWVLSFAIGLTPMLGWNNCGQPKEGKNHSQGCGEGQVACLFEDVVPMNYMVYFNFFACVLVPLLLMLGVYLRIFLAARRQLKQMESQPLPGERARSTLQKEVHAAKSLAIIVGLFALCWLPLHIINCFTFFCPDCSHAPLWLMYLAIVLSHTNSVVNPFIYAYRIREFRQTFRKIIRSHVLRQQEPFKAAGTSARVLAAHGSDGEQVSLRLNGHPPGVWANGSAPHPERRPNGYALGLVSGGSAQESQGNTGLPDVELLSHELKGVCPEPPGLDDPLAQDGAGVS", "assay": "Human adenosine A2A receptor [3H]-SCH-58261 binding assay", "settings": "for hA2 (pKi): human A2A receptor, selectivity table; for Ki: human A2a receptor, membranes of CHO cells, [3H]-SCH-58261, read-out: pKi (affinity to the human A2a receptor) (converted)", "summary_of_the_method": "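Membranes from CHO cells expressing the human receptor (Semliki Forest virus system) were incubated with 1 nM [3H]-SCH-58261 and adenosine deaminase. The buffer was Tris pH 7.4 with NaCl, KCl, CaCl2 and MgCl2, and the read-out was SPA after 1 h at room temperature. Non-specific binding was defined with XAC; compounds were run at 10 concentrations (10 μM–0.3 nM), and IC50 values were converted to Ki by Cheng-Prusoff.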"}, "[3]": {"molecular_target": "T3, human adenosine A3 receptor (Homo sapiens, UniProt P0DMS8)", "T3 construct": "expressed in transfected cells; host or cells: CHO cells, semliki forest virus expression system; membrane preparation", "T3 sequence (P0DMS8 1-318)": "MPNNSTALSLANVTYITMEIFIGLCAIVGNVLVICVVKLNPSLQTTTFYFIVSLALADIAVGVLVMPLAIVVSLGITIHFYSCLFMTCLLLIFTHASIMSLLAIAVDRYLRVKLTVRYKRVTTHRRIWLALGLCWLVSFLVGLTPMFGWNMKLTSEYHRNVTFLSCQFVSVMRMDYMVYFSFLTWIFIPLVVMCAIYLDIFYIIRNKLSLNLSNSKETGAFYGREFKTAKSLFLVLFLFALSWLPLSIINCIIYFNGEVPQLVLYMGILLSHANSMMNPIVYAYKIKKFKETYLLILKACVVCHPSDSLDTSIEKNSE", "assay": "Human adenosine A3 receptor [125I]-AB-MECA binding assay", "settings": "membranes of CHO cells, read-out: hA3 (pKi) (converted)", "protocol": "The gene encoding human adenosine A3 receptor was recombinantly introduced and expressed in chinese hamster ovary (CHO) cells using the semliki forest virus expression system. Cells were harvested, washed twice by centrifugation, homogenised and again washed by centrifugation. The final washed membrane pellet was suspended in a Tris (50 mM) buffer containing 120 mM NaCl, 5 mM KCl, 2 mM CaCl2 and 10 mM MgCl2 (pH 7.4) (buffer A). The [^125I]-AB-MECA ([N(6)-(4-amino-3-iodobenzyl)-5′-N-methylcarbamoyl-adenosine]; 0.05 nM) binding assay was carried out in 96-well plates in the presence of 20 μg of membrane protein and 0.1 U adenosine deaminase in a final volume of 200 μl of buffer A. Non-specific binding was defined using xanthine amine congener (XAC; 2 μM). Compounds were tested at 10 concentrations from 10 μM-0.3 nM. All assays were conducted in duplicate and repeated at least two times. Assay plates were incubated for 1 hour at room temperature before filtration through Whatman Unifilter GF/C 96-well filter plates (preincubated with 0.3% polyethyleneimine). Filters were washed 3 times with 0.3 ml of cold (4° C.) Tris (50 mM)-Nacl (120 mM) buffer (pH 7.4). Microscint 40 scintillation fluid (50 μl) was added to each well and the wells sealed. After gentle shaking for 20 min, plates were counted on a Packard Topcount scintillation counter. IC50 values were calculated using a non-linear curve fitting program and Ki values calculated using the Cheng-Prussoff equation."}},
  "data": [
    {"smiles": "Cc1ccccc1CNc1nc(N)nc(-c2ccco2)c1C#N", "note": "[Example 288, 2-Amino-4-furan-2-yl-6-(2-methyl-benzylamino)-pyrimidine-5-carbonitrile]", "values": [
      {"measurement": "Ki", "setting": "[1]", "value": 0.372, "unit": "µM"},
      {"measurement": "hA2 (pKi)", "setting": "[2]", "value": 8.59},
      {"measurement": "Ki", "setting": "[2]", "value": 0.00257, "unit": "µM"},
      {"measurement": "Ki", "setting": "[3]", "value": 0.151, "unit": "µM"}
    ]},
    {"smiles": "N#Cc1c(OCc2ccc3ccccc3c2)nc(N)nc1-c1ccco1", "note": "[Example 303, 2-Amino-4-furan-2-yl-6-(naphthalen-2-ylmethoxy)-pyrimidine-5-carbonitrile]", "values": [
      {"measurement": "Ki", "setting": "[1]", "value": 0.316, "unit": "µM"},
      {"measurement": "hA2 (pKi)", "setting": "[2]", "value": 8.60},
      {"measurement": "Ki", "setting": "[2]", "value": 0.00251, "unit": "µM"},
      {"measurement": "Ki", "setting": "[3]", "value": 8.71, "unit": "µM"}
    ]},
    {"smiles": "N#Cc1c(NCCNc2ccc(Cl)cc2)nc(N)nc1-c1ccco1", "note": "[Example 318, 2-Amino-4-[2-(4-chloro-phenylamino)-ethylamino]-6-furan-2-yl-pyrimidine-5-carbonitrile]", "values": [
      {"measurement": "Ki", "setting": "[1]", "value": 0.851, "unit": "µM"},
      {"measurement": "hA2 (pKi)", "setting": "[2]", "value": 8.27},
      {"measurement": "Ki", "setting": "[2]", "value": 0.00537, "unit": "µM"},
      {"measurement": "Ki", "setting": "[3]", "value": 7.24, "unit": "µM"}
    ]},
    {"smiles": "N#Cc1c(NCc2ccc(Br)cc2)nc(N)nc1-c1ccco1", "note": "[Example 325, 2-Amino-4-(4-bromo-benzylamino)-6-furan-2-yl-pyrimidine-5-carbonitrile]", "values": [
      {"measurement": "Ki", "setting": "[1]", "value": 2.88, "unit": "µM"},
      {"measurement": "hA2 (pKi)", "setting": "[2]", "value": 8.26},
      {"measurement": "Ki", "setting": "[2]", "value": 0.0055, "unit": "µM"},
      {"measurement": "Ki", "setting": "[3]", "value": 3.98, "unit": "µM"}
    ]},
    {"smiles": "CCc1ccc(CNc2nc(N)nc(-c3ccco3)c2C#N)cc1", "note": "[Example 375, 2-Amino-4-(4-ethyl-benzylamino)-6-furan-2-yl-pyrimidine-5-carbonitrile]", "values": [
      {"measurement": "Ki", "setting": "[1]", "value": 0.646, "unit": "µM"},
      {"measurement": "hA2 (pKi)", "setting": "[2]", "value": 8.40},
      {"measurement": "Ki", "setting": "[2]", "value": 0.00398, "unit": "µM"},
      {"measurement": "Ki", "setting": "[3]", "value": 2.14, "unit": "µM"}
    ]}
  ]
}
